Test results reported in patent US20090143285A1, “TARGET PROTEIN AND TARGET GENE FOR DRUG DISCOVERY AND SCREENING METHOD” (REVERSE PROTEOMICS RESEARCH INSTITUTE CO., LTD., priority 2005, published 2009).
Entries after “also recorded” stand apart in the source; their conditions may differ. Like-named read-outs stand apart in the source and are kept apart here.

Key:
[1] = tested on: FLJXXXXX-derived proteins; experiment: SEC/MS spin column interaction analysis of FLJXXXXX-derived proteins and various compounds (Tables 30-1 to 30-4); assay type: binding, human
FLJ35914-derived protein = target: T1, FLJ35914-derived protein (Homo sapiens, UniProt Q9HB65, DEL362-362); experiment: SEC/MS interaction analysis, FLJ35914-derived protein (ELL3); assay type: binding; details: TSKgel super SW2000 micro-LC column (1.0 mm ID×30 mm); presence vs absence of protein; data not shown
T1 construct: His-tag (N); made in house; host or cells: Escherichia coli BL21star(DE3)pLysS
T1 sequence (Q9HB65 with tags, fused parts or gaps DEL362-362): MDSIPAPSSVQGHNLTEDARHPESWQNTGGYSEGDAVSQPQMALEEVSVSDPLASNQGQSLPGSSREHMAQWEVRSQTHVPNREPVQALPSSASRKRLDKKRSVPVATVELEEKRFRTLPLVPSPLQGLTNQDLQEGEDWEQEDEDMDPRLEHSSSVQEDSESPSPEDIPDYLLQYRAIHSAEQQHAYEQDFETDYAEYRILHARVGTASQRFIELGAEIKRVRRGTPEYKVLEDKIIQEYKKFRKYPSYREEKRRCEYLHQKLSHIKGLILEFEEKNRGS
Excerpt: (§1) The specific procedures are shown below.

FLJ36526-derived protein = target: T2, FLJ36526-derived protein (Homo sapiens, UniProt Q9UNZ2, D290N/L361F); experiment: SEC/MS interaction analysis, FLJ36526-derived protein (NSFL1 (p97) cofactor (p47)); assay type: binding; details: TSKgel super SW2000 micro-LC column (1.0 mm ID×30 mm); presence vs absence of protein; data not shown
T2 construct: His-tag (N); made in house; host or cells: Escherichia coli BL21star(DE3)pLysS
T2 sequence (Q9UNZ2 1-370 D290N/L361F): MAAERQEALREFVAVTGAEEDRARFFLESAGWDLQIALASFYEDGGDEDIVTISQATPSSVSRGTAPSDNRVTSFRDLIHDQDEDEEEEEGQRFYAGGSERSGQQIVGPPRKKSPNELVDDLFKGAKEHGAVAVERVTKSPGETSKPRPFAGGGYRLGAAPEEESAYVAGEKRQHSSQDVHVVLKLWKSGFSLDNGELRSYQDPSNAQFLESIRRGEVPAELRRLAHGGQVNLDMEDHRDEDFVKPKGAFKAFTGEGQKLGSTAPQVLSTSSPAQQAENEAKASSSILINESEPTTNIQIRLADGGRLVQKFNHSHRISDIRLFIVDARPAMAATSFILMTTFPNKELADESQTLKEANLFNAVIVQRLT
Excerpt: as §1

FLJ39553-derived protein = target: T3, FLJ39553-derived protein (Homo sapiens, UniProt Q6P6B1, N326S); experiment: SEC/MS interaction analysis, FLJ39553-derived protein (hypothetical protein FLJ39553); assay type: binding; details: TSKgel super SW2000 micro-LC column (1.0 mm ID×30 mm); presence vs absence of protein; data not shown
T3 construct: His-tag (N); made in house; host or cells: Escherichia coli BL21star(DE3)pLysS
T3 sequence (Q6P6B1 1-374 N326S): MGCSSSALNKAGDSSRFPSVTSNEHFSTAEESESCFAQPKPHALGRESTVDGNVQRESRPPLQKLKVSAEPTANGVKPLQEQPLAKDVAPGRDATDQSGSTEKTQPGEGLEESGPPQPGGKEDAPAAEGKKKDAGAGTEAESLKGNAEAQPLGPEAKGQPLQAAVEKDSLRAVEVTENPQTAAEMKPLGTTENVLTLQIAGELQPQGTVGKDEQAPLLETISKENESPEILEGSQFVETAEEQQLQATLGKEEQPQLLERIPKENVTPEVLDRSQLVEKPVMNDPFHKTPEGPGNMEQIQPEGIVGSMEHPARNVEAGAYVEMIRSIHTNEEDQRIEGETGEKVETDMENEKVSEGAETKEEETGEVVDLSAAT
Excerpt: (§2) To analyze the interactions between commonly used drugs and proteins expressed from human full-length cDNA clones while keeping both the proteins and the compounds in non-modified, non-immobilized state, size exclusion chromatography (SEC) and mass analysis were used in combination. The specific procedures are shown below.
(§3) The compound-protein mixture prepared in step 1 was subjected to chromatography using an SEC column, the compound and the protein were separated by SEC, and the compound that interacted with the bound compound or protein contained in the protein fraction was analyzed using a mass analyzer.
(§4) Protein concentrations were measured using BCA Protein Assay (PIERCE), in consideration of the purity calculated by SDS-PAGE.
Mass analysis was performed using LCQ DECA XP (Thermoelectron) or Q-TOF micro (Micromass), equipped with an ESI probe. […]
In the 384-well spin column method, Unifilter 100 (Whatman), packed with 10 μL (dry volume) of Bio-Gel P6 (BIO-RAD) and swollen with milliQ water, was used as the SEC column. […] 2-μL of mass analysis samples were injected using an autosampler at 2-minute intervals; the mass spectral intensity of the compound was measured to retrieve the spectral intensity of the pharmaceutical compound contained in the SEC spin column filtrate (protein fraction eluted from SEC).

FLJ38531-derived protein [2] = target: T4, FLJ38531-derived protein (Homo sapiens, UniProt Q9BVM4); experiment: Biacore dissociation constant (KD) measurement, FLJ38531-derived protein; assay type: binding; details: FLJ38531-derived protein (SEQ ID NO 13)
T4 construct: His-tag (N); made in house; host or cells: Escherichia coli BL21star(DE3)pLysS
T4 sequence (Q9BVM4 1-153): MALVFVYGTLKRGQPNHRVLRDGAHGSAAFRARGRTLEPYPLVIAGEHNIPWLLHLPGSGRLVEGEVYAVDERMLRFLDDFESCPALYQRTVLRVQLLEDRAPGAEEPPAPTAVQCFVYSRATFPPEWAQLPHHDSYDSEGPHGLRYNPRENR
Excerpt: This washing operation was repeated as required.

FLJ38531-derived protein [3] = target: T4, FLJ38531-derived protein; experiment: SEC/MS interaction analysis, FLJ38531-derived protein (hypothetical protein BC004360); assay type: binding
Excerpt: as §2, §3, §4
Mass analysis was performed using LCQ DECA XP (Thermoelectron) or Q-TOF micro (Micromass), equipped with an ESI probe. The LC pump used was Agilent 1100 (Yokogawa Analytical Systems), and the autosampler used was HTC-PAL (CTC Analytics) equipped with a cooling stacker. The SEC column used was a micro-LC column or a 384-well spin column. […]
In the 384-well spin column method, Unifilter 100 (Whatman), packed with 10 μL (dry volume) of Bio-Gel P6 (BIO-RAD) and swollen with milliQ water, was used as the SEC column. […] The SEC spin column was mounted on an acetonitrile-aliquoted 384-well U-bottom plate and centrifuged; the SEC spin column filtrate, which is a protein fraction, was recovered in 50% acetonitrile. The protein precipitate produced by the acetonitrile was removed via centrifugation and filtration for deproteinization; the resulting filtrate was concentrated by centrifugal concentration and re-dissolved in 10 μL of 50% methanol to obtain a mass analysis sample. The mobile phase supplied to the mass analyzer was 0.1% formic acid/50% methanol solution in the positive ion mode, and 0.1% ammonia/50% methanol solution in the negative ion mode; these mobile phases were used at a flow rate of 40 μL/min. 2-μL of mass analysis samples were injected using an autosampler at 2-minute intervals; the mass spectral intensity of the compound was measured to retrieve the spectral intensity of the pharmaceutical compound contained in the SEC spin column filtrate (protein fraction eluted from SEC).

| Kd (FLJ38531-derived protein [2]) [µM] | spectrum intensity of the compound in the SEC spin column filtrate (FLJ38531-derived protein [3]; compound 12.5 μM, protein 0 μM) | spectrum intensity of the compound in the SEC spin column filtrate (FLJ38531-derived protein [3]; compound 12.5 μM, protein 5 μM) | spectrum intensity of the compound in the SEC spin column filtrate (FLJ38531-derived protein [3]; compound 12.5 μM, protein 10 μM) | spectrum intensity of the compound in the SEC spin column filtrate (FLJ38531-derived protein [3]; compound 12.5 μM, protein 25 μM) | spectrum intensity of the compound in the SEC spin column filtrate (FLJ38531-derived protein [3]; compound 25 μM, protein 0 μM) | spectrum intensity of the compound in the SEC spin column filtrate (FLJ38531-derived protein [3]; compound 25 μM, protein 5 μM) | spectrum intensity of the compound in the SEC spin column filtrate (FLJ38531-derived protein [3]; compound 25 μM, protein 10 μM) | spectrum intensity of the compound in the SEC spin column filtrate (FLJ38531-derived protein [3]; compound 25 μM, protein 25 μM) | spectrum intensity of the compound in the SEC spin column filtrate (FLJ38531-derived protein [3]; compound 62.5 μM, protein 0 μM) | spectrum intensity of the compound in the SEC spin column filtrate (FLJ38531-derived protein [3]; compound 62.5 μM, protein 5 μM) | spectrum intensity of the compound in the SEC spin column filtrate (FLJ38531-derived protein [3]; compound 62.5 μM, protein 10 μM) | spectrum intensity of the compound in the SEC spin column filtrate (FLJ38531-derived protein [3]; compound 62.5 μM, protein 25 μM) | interaction judged from spectrum intensity of the compound in the SEC spin column filtrate (protein fraction eluted from SEC) (FLJ38531-derived protein [3]; spin column method, doses of both compound and protein varied) | SMILES | FLJ No of the derived protein with which the compound was judged to exhibit a concentration-dependent interaction [1] | interaction judged from mass chromatogram of the compound (elution from SEC micro-LC column) (FLJ35914-derived protein) | interaction judged from mass chromatogram of the compound (elution from SEC micro-LC column) (FLJ36526-derived protein) | interaction judged from mass chromatogram of the compound (elution from SEC micro-LC column) (FLJ39553-derived protein) | FLJ No of the derived protein with which the compound was judged to exhibit a concentration-dependent interaction ([1]; SEC spin column filtrate, spectral intensity increased with doses of compound and protein) |
| --- | --- | --- | --- | --- | --- | --- | --- | --- | --- | --- | --- | --- | --- | --- | --- | --- | --- | --- | --- |
|  |  |  |  |  |  |  |  |  |  |  |  |  |  | C/C1=C2N=C(/C=C3N=C(/C(C)=C4\[N-][C@@](C)([C@@H]5N=C1[C@](C)(CCC(=O)NC[C@@H](C)OP(=O)([O-])O[C@H]1[C@@H](O)[C@@H](n6cnc7cc(C)c(C)cc76)O[C@@H]1CO)[C@H]5CC(N)=O)[C@@](C)(CC(N)=O)[C@@H]4CCC(N)=O)[C@@](C)(CC(N)=O)[C@@H]\3CCC(N)=O)C(C)(C)[C@@H]/2CCC(N)=O.[Co+3].[OH-] [hydroxocobalamin] | FLJ35914; also recorded: FLJ36526; also recorded: FLJ39553 | there was an interaction | there was an interaction | there was an interaction |  |
| 8.9 | 59203 | 261679 | 686531 | 2048630 | 53384 | 401351 | 946518 | 2600573 | 179387 | 688076 | 1418687 | 3155516 | concentration-dependent interaction | O=C(O)c1cc(/N=N/c2ccc(S(=O)(=O)Nc3ccccn3)cc2)ccc1O [sulfasalazine] |  |  |  |  | FLJ38531 |
